Test results taken from patent US10758534B2 (Vertex Pharmaceuticals Incorporated, priority 2014, dated 2020).

biological target: T1, F508del (Homo sapiens, UniProt P13569, DEL508-508); test: Protocol 2: FRET membrane potential optical assay (VIPR), identification of correction compounds; type: cell-based; details: Table 3; compounds of Table 1 as modulators of CFTR activity; protocol not stated
T1 construct: expressed in transfected cells
Method in brief: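 Correction of the F508del trafficking defect is scored as forskolin (10 μM)/genistein (20 μM)-stimulated Cl^− efflux in NIH3T3 mouse fibroblasts after a 16 hr, 37° C. compound exposure. Depolarization was followed optically using voltage-sensing FRET dyes.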

T1 sequence (P13569 with tags, fused parts or gaps DEL508-508): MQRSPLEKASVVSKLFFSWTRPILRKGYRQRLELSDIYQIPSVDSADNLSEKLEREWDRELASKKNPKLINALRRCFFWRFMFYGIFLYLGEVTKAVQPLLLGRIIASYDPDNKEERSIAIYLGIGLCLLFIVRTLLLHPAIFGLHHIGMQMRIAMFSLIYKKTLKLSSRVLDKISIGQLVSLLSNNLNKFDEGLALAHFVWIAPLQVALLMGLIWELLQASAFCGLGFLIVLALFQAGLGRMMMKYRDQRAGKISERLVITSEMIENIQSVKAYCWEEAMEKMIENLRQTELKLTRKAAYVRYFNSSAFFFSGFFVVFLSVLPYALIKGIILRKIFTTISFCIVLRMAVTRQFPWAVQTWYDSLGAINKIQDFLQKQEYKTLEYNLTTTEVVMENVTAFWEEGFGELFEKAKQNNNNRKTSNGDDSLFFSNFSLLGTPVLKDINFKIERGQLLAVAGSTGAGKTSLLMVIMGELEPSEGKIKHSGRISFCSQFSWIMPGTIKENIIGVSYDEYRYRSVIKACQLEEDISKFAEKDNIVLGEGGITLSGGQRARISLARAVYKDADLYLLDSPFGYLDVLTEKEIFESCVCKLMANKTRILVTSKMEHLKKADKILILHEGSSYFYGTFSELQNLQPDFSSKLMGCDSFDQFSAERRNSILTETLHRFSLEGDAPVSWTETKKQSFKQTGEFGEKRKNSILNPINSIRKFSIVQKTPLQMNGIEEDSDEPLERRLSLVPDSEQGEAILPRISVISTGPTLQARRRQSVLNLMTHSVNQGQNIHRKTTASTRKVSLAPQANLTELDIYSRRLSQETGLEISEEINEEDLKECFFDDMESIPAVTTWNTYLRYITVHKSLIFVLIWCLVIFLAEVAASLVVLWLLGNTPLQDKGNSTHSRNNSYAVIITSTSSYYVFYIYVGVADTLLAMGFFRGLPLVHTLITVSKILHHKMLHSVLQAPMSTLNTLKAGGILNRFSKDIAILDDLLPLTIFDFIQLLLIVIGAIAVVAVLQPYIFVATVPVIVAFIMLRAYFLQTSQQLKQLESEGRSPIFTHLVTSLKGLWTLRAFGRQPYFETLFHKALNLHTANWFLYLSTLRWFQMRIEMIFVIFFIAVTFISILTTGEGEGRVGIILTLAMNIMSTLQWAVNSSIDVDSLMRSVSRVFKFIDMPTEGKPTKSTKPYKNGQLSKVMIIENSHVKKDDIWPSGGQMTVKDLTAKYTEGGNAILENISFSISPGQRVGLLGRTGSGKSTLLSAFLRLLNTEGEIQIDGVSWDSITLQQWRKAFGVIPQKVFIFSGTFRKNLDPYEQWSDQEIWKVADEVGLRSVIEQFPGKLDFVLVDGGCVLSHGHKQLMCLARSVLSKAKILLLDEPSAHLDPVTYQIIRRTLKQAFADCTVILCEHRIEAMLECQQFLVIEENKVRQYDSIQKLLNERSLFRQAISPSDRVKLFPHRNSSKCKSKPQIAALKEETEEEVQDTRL

Row | EC30 | SMILES
1 | ++ (“++” means between 3 uM and 10 uM) | Cc1cc(C)c(Oc2nc(-c3ccc(C)nc3)ccc2C(=O)NS(=O)(=O)c2cccc(N)n2)c(C)c1 [Compound 513, N-[(6-amino-2-pyridyl)sulfonyl]-6-(6-methyl-3-pyridyl)-2-(2,4,6-trimethylphenoxy)pyridine-3-carboxamide]
2 | + (“+” means greater than 10 uM) | Cc1cc(C)c(Oc2nc(-c3ccncc3F)ccc2C(=O)NS(=O)(=O)c2cccc(N)n2)c(C)c1 [Compound 514, N-[(6-amino-2-pyridyl)sulfonyl]-6-(3-fluoro-4-pyridyl)-2-(2,4,6-trimethylphenoxy)pyridine-3-carboxamide]
3 | +++ (“+++” means <3 uM) | Cc1cc(C)c(Oc2nc(C(C)(C)C)ccc2C(=O)N=S(N)(=O)c2cccc(N)n2)c(C)c1 (stereo not drawn) [Compound 515, N-[amino-(6-amino-2-pyridyl)-oxo-$1^6-sulfanylidene]-6-tert-butyl-2-(2,4,6-trimethylphenoxy)pyridine-3-carboxamide]
4 | ++ (“++” means between 3 uM and 10 uM) | CCOc1ccc(-c2ccc(C(=O)NS(=O)(=O)c3ccc[nH]c3=O)c(Oc3ccc(C)cc3C)n2)cc1 [Compound 517, 2-(2,4-dimethylphenoxy)-6-(4-ethoxyphenyl)-N-[(2-oxo-1H-pyridin-3-yl)sulfonyl]pyridine-3-carboxamide]
5 | +++ (“+++” means <3 uM) | Cc1cc(C)c(Oc2nc(-c3ccc(F)cc3)ccc2C(=O)NS(=O)(=O)c2cc[nH]n2)c(C)c1 [Compound 518, 6-(4-fluorophenyl)-N-(1H-pyrazol-3-ylsulfonyl)-2-(2,4,6-trimethylphenoxy)pyridine-3-carboxamide]
6 | +++ (“+++” means <3 uM) | CC1CN(c2nc(-c3ccc(OC(C)C)nc3)ccc2C(=O)NS(=O)(=O)c2cccc(N)n2)CC(C)(C)C1 (stereo not drawn) [Compound 520, N-[(6-amino-2-pyridyl)sulfonyl]-6-(6-isopropoxy-3-pyridyl)-2-(3,3,5-trimethyl-1-piperidyl)pyridine-3-carboxamide]
7 | ++ (“++” means between 3 uM and 10 uM) | CC(C)Oc1ccc(-c2ccc(C(=O)NS(=O)(=O)c3cccc(N)n3)c(N3CC4CCC3C4)n2)cn1 (stereo not drawn) [Compound 521, N-[(6-amino-2-pyridyl)sulfonyl]-2-(3-azabicyclo[2.2.1]heptan-3-yl)-6-(6-isopropoxy-3-pyridyl)pyridine-3-carboxamide]
8 | +++ (“+++” means <3 uM) | CCCC1CCCN(c2nc(-c3ccc(OC(C)C)nc3)ccc2C(=O)NS(=O)(=O)c2cccc(N)n2)C1 (stereo not drawn) [Compound 522, N-[(6-amino-2-pyridyl)sulfonyl]-6-(6-isopropoxy-3-pyridyl)-2-(3-propyl-1-piperidyl)pyridine-3-carboxamide]
9 | +++ (“+++” means <3 uM) | CC(C)CNc1cc(-c2ccc(C(=O)NS(=O)(=O)c3cccc(N)n3)c(N3CC(C)CC3(C)C)n2)ccn1 (stereo not drawn) [Compound 523, N-[(6-amino-2-pyridyl)sulfonyl]-6-[2-(isobutylamino)-4-pyridyl]-2-(2,2,4-trimethylpyrrolidin-1-yl)pyridine-3-carboxamide]
10 | ++ (“++” means between 3 uM and 10 uM) | COc1ncccc1S(=O)(=O)NC(=O)c1ccc(-c2ccc(C)cc2)nc1-c1ccc(C)cc1 [Compound 524, N-[(2-methoxy-3-pyridyl)sulfonyl]-2,6-bis(p-tolyl)pyridine-3-carboxamide]
11 | ++ (“++” means between 3 uM and 10 uM) | Cc1cc(C)c(Oc2nc(-c3cccc4c3OCO4)ccc2C(=O)NS(=O)(=O)c2ccc[nH]c2=O)c(C)c1 [Compound 525, 6-(1,3-benzodioxol-4-yl)-N-[(2-oxo-1H-pyridin-3-yl)sulfonyl]-2-(2,4,6-trimethylphenoxy)pyridine-3-carboxamide]
12 | +++ (“+++” means <3 uM) | COc1ncccc1-c1ccc(C(=O)NS(=O)(=O)c2cccc(N)n2)c(N2CC(C)CC2(C)C)n1 (stereo not drawn) [Compound 526, N-[(6-amino-2-pyridyl)sulfonyl]-6-(2-methoxy-3-pyridyl)-2-(2,2,4-trimethylpyrrolidin-1-yl)pyridine-3-carboxamide]
13 | ++ (“++” means between 3 uM and 10 uM) | CC(C)(C)c1ccc(C(=O)NS(=O)(=O)c2cccc(N)n2)c(C2=CCCC2)n1 [Compound 529, N-[(6-amino-2-pyridyl)sulfonyl]-6-tert-butyl-2-(cyclopenten-1-yl)pyridine-3-carboxamide]
14 | +++ (“+++” means <3 uM) | COc1ccc(-c2ccc(C(=O)NS(=O)(=O)c3cccc(N)n3)c(Oc3c(C)cc(C)cc3C)n2)cn1 [Compound 531, N-[(6-amino-2-pyridyl)sulfonyl]-6-(6-methoxy-3-pyridyl)-2-(2,4,6-trimethylphenoxy)pyridine-3-carboxamide]
15 | ++ (“++” means between 3 uM and 10 uM) | Cc1ccc(C(=O)NS(=O)(=O)c2cccc(N)n2)c(N2CCC[C@@H](c3ccccc3)C2)n1 [Compound 532, N-[(6-amino-2-pyridyl)sulfonyl]-6-methyl-2-[(3S)-3-phenyl-1-piperidyl]pyridine-3-carboxamide]
16 | +++ (“+++” means <3 uM) | COc1ncc(-c2ccc(C(=O)NS(=O)(=O)c3cccc(N)n3)c(Oc3ccc(C)cc3C)n2)cc1C [Compound 533, N-[(6-amino-2-pyridyl)sulfonyl]-2-(2,4-dimethylphenoxy)-6-(6-methoxy-5-methyl-3-pyridyl)pyridine-3-carboxamide]
17 | ++ (“++” means between 3 uM and 10 uM) | CC1CCN(c2nc(-c3ccc(OC(C)C)nc3)ccc2C(=O)NS(=O)(=O)c2ccn[nH]2)CC1 [Compound 534, 6-(6-isopropoxy-3-pyridyl)-2-(4-methyl-1-piperidyl)-N-(1H-pyrazol-5-ylsulfonyl)pyridine-3-carboxamide]
18 | +++ (“+++” means <3 uM) | CCCOc1cc(-c2ccc(C(=O)NS(=O)(=O)c3cccc(N)n3)c(Oc3c(C)cc(C)cc3C)n2)ccc1Cl [Compound 535, N-[(6-amino-2-pyridyl)sulfonyl]-6-(4-chloro-3-propoxy-phenyl)-2-(2,4,6-trimethylphenoxy)pyridine-3-carboxamide]
19 | +++ (“+++” means <3 uM) | CCOc1ccc(-c2ccc(C(=O)NS(=O)(=O)c3cccc(N)n3)c(N3CC(C)CC3(C)C)n2)c(C)c1 (stereo not drawn) [Compound 536, N-[(6-amino-2-pyridyl)sulfonyl]-6-(4-ethoxy-2-methyl-phenyl)-2-(2,2,4-trimethylpyrrolidin-1-yl)pyridine-3-carboxamide]
20 | +++ (“+++” means <3 uM) | CC(C)(C)c1ccc(C(=O)NS(=O)(=O)c2ccc(N)cc2)c(C2CCCCC2)n1 [Compound 537, N-(4-aminophenyl)sulfonyl-6-tert-butyl-2-cyclohexyl-pyridine-3-carboxamide]
21 | +++ (“+++” means <3 uM) | Cc1cc(C)c(Oc2nc(C3CCC(C)(C)CC3)ccc2C(=O)NS(=O)(=O)c2cccc(N)n2)c(C)c1 [Compound 538, N-[(6-amino-2-pyridyl)sulfonyl]-6-(4,4-dimethylcyclohexyl)-2-(2,4,6-trimethylphenoxy)pyridine-3-carboxamide]
22 | + (“+” means greater than 10 uM) | COc1ccnc2c1cc(C(=O)NS(=O)(=O)c1cccc(N)n1)n2Cc1c(C)cc(C)cc1C [Compound 539, N-[(6-amino-2-pyridyl)sulfonyl]-4-methoxy-1-[(2,4,6-trimethylphenyl)methyl]pyrrolo[2,3-b]pyridine-2-carboxamide]
23 | + (“+” means greater than 10 uM) | C[C@H](c1ccccc1)n1nc(C(C)(C)C)cc1C(=O)NS(=O)(=O)c1cccc(N)c1 [Compound 540, N-(3-aminophenyl)sulfonyl-5-tert-butyl-2-[1(1R)-1-phenylethyl]pyrazole-3-carboxamide]
24 | +++ (“+++” means <3 uM) | C[C@@H]1CC[C@H](C)N1c1nc(-c2cc(F)cc(OCC3CC3)c2)ccc1C(=O)NS(=O)(=O)c1ccc[nH]c1=O [Compound 541, 6-[3-(cyclopropylmethoxy)-5-fluoro-phenyl]-2-[(2S,5R)-2,5-dimethylpyrrolidin-1-yl]-N-[(2-oxo-1H-pyridin-3-yl)sulfonyl]pyridine-3-carboxamide]
25 | +++ (“+++” means <3 uM) | CC(C)(C)c1ccc(C(=O)NS(=O)(=O)c2cccc(N)c2)c(-c2ccccc2)n1 [Compound 542, N-(3-aminophenyl)sulfonyl-6-tert-butyl-2-phenyl-pyridine-3-carboxamide]

Row | SMILES | EC30
26 | CC(C)COc1cc(F)cc(-c2ccc(C(=O)NS(=O)(=O)c3cccc(N)n3)c(N(C)C(C)C3CC3)n2)c1 (stereo not drawn) [Compound 516, N-[(6-amino-2-pyridyl)sulfonyl]-2-[1-cyclopropylethyl(methyl)amino]-6-(3-fluoro-5-isobutoxy-phenyl)pyridine-3-carboxamide] | +++ (“+++” means <3 uM)
27 | CC(C)COc1cc(F)cc(-c2ccc(C(=O)NS(=O)(=O)c3ccn[nH]3)c(N3CCCC4(COC4)C3)n2)c1 [Compound 519, 6-(3-fluoro-5-isobutoxy-phenyl)-2-(2-oxa-8-azaspiro[3.5]nonan-8-yl)-N-(1H-pyrazol-5-ylsulfonyl)pyridine-3-carboxamide] | ++ (“++” means between 3 uM and 10 uM)
28 | CC(C)COc1cc(F)cc(-c2ccc(C(=O)NS(=O)(=O)c3cccc(N)n3)c(N3CC4(CCC4)C3)n2)c1 [Compound 527, N-[(6-amino-2-pyridyl)sulfonyl]-2-(6-azaspiro[3.3]heptan-6-yl)-6-(3-fluoro-5-isobutoxy-phenyl)pyridine-3-carboxamide] | +++ (“+++” means <3 uM)
29 | CC(C)COc1cc(F)cc(-c2ccc(C(=O)NS(=O)(=O)c3ccn[nH]3)c(N3CCC(C)C(C)C3)n2)c1 (stereo not drawn) [Compound 528, 2-(3,4-dimethyl-1-piperidyl)-6-(3-fluoro-5-isobutoxy-phenyl)-N-(1H-pyrazol-5-ylsulfonyl)pyridine-3-carboxamide] | +++ (“+++” means <3 uM)
30 | CCC1(C)CCCN(c2nc(-c3cc(F)cc(OCC(C)C)c3)ccc2C(=O)NS(=O)(=O)c2cccc(N)n2)C1 (stereo not drawn) [Compound 530, N-[(6-amino-2-pyridyl)sulfonyl]-2-(3-ethyl-3-methyl-1-piperidyl)-6-(3-fluoro-5-isobutoxy-phenyl)pyridine-3-carboxamide] | +++ (“+++” means <3 uM)
